Data as given in PMC12474366, “Metabolic Profiling, Tissue Distribution, and Tolerance Assessment of Bopu Powder in Laying Hens Following Long-Term Dietary Administration” (Veterinary Sciences, 2025).
Several values for one entry are separate records, joined by “and”; a condition that tells them apart may be missing. Equal entries are not always repeated. Where two headings read alike, the source gives them in different places.

Assays:
[1] = cited from earlier work
[2] = Metabolite identification in plasma and feces after intravenous PRO or ALL (LC-Q-TOF-MS)
Protocol: (§1) Nine hens were allocated to the metabolic study. These birds were randomly divided into three groups (n = 3 per group): the blank control group, the PRO group, and the ALL group.
(§2) Plasma: Blood samples were collected from the subcutaneous ulnar vein at 5, 10, 20, 30, 60, and 120 min post-administration. Samples were centrifuged at 4 °C and 3200× g for 10 min. The supernatant (plasma) was collected and stored at −80 °C for subsequent metabolite analysis.
(§3) Feces: Feces were collected over the intervals 0–6 h, 6–12 h, 12–24 h, and 24–48 h following intravenous administration. All fecal samples were immediately stored at −80 °C.
(§4) Plasma: Plasma samples stored at −80 °C were thawed at room temperature. A pooled plasma sample was prepared by combining equal volumes of plasma from each designated collection timepoint. A 200 μL aliquot of this pooled plasma was precisely transferred into a 1.5 mL microcentrifuge tube. Subsequently, 800 μL of acetonitrile was added to precipitate proteins, and the mixture was vortex-mixed vigorously for 2 min. Following protein precipitation, the tube was sealed and sonicated for 20 min. The sample was then centrifuged at 12,000× g for 10 min. The resulting supernatant was carefully collected and evaporated to dryness under a gentle stream of nitrogen at room temperature. The dried residue was reconstituted in 200 μL of acetonitrile, vortex-mixed for 2 min, and centrifuged again at 12,000× g for 5 min. Finally, the supernatant was filtered through a 0.22 μm organic membrane filter prior to LC-MS/MS analysis.
(§5) Feces: Fecal samples stored at −80 °C were thawed at room temperature and homogenized. A 2.00 g aliquot of the homogenized feces was accurately weighed into a 50 mL centrifuge tube. Ten milliliters of acetonitrile, serving as the extraction solvent, was added to the sample, which was then vortex-mixed for 5 min. The tube was sealed and subjected to sonication for 20 min.

[3] = rat liver S9 fractions; cited from earlier work
[4] = cited from earlier work; remark: listed apart in the source
[5] = set-up: method as in doi:10.19378/j.issn.1003-9783.2020.12.010; conditions: rats, oral administration of ALL; cited from earlier work
[6] = set-up: method as in PMID 39805195; conditions: broiler hepatic microsomes, stable isotope tracing; cited from earlier work
[7] = porcine liver S9 fractions; cited from earlier work
[8] = Residues of PRO and ALL in laying hens' tissues and eggs after 56-day dietary Bopu Powder (LC-QQQ-MS); conditions: mean ± sd; for concentration at 56 days: female, Roman Gray, chicken (laying hens), in vivo, n = 6, LOD 1 ng/g wet weight
Protocol: Throughout the experimental period, the hens were housed in cages under standard laboratory conditions, with ad libitum access to feed and water. Following a 7-day acclimatization period, standardized feeding regimens and routine health management procedures, including biosecurity protocols, were implemented. […] Three experimental groups were established: CN (control, no additive), BP (50 mg/kg additive), and BPX (500 mg/kg additive). The study employed a randomized design with 6 replicates per group and 18 hens per replicate. The feeding trial duration was 56 days.
Additionally, at the end of week 8, from each replicate group, one hen was randomly selected. A 10 mL blood sample was collected from the subcutaneous ulnar vein; 5 mL was transferred into an EDTA-K2 anticoagulant tube, gently mixed, and centrifuged at 3000× g for 10 min. The separated plasma was transferred into EP tubes (Eppendorf tubes) and stored at −20 °C for residue analysis.
Eggs: During weeks 4 and 8 of the trial, two eggs per replicate group, approximating the mean egg weight, were collected and stored at 4 °C until analysis.
Segments of jejunum, ileum, liver, ovary, oviduct, uterus, pectoral muscle, thigh muscle, gizzard, abdominal fat, and subcutaneous fat were individually wrapped in aluminum foil, flash-frozen in liquid nitrogen, and stored at −80 °C pending analysis.
Eggs: Two grams of homogenized whole egg liquid was transferred into a 50 mL centrifuge tube containing homogenization beads. Twenty microliters of the 1 mg/L internal standard (IS) working solution was precisely added, followed by vortex mixing for 30 s. Subsequently, 10 mL of acetonitrile was added and the mixture was vortex-mixed for 5 min to facilitate extraction. The sample was then centrifuged at 8000× g for 5 min. Five milliliters of the resulting supernatant was transferred to a ten-milliliter centrifuge tube, combined with three milliliters of n-hexane, and vortex-mixed for 1 min. After phase separation, the upper n-hexane layer was carefully removed using a rubber-bulb pipette. Then, 1 mL of the lower aqueous acetonitrile phase was collected, evaporated to dryness under a nitrogen stream, and reconstituted in 0.5 mL of acetonitrile with 30 s of vortex mixing. The final extract was filtered through a 0.22 μm organic solvent-compatible membrane prior to LC-MS/MS analysis. Only two quality control (QC) measures were implemented: parallel duplicate samples, and blank/carryover checks.
Tissues: Tissue samples stored at −80 °C were thawed to room temperature. Approximately 2 g of tissue was weighed into a 50 mL screw-cap centrifuge tube. Twenty microliters of freshly prepared 20 mg·L^−1 IS solution and 1 mL of physiological saline were added.

[9] = tested on: carbon tetrachloride, acetaminophen, and simvastatin-induced hepatotoxicity; set-up: method as in PMID 9782072; conditions: PRO 11–22 mg/kg body weight; cited from earlier work
[10] = in vivo, iv, 1 mg/kg
Protocol: as §1, §2, §3, §4, §5

[11] = rat, in vivo; cited from earlier work
[12] = BPX group: 500 mg/kg Bopu Powder in diet, 56 days, n = 6, LOD 1 ng/g wet weight

**Q.** For `COc1ccc2c(c1OC)CN(C)CCc1cc3c(cc1C(=O)C2)OCO3` [ALL, allocryptopine], which “residues in urine, feces, plasma, and various tissues” value ([1]; rats, following ALL administration) is on record?
**A.** The value was less than 3 ng/g.

**Q.** And the “number of metabolites detected in pooled plasma” value ([2]; intravenous 1 mg/kg bw, pooled plasma 5 to 120 min post-administration)?
**A.** Its value is “seven”.

**Q.** And the “number of metabolites identified in plasma and feces” value ([2]; intravenous 1 mg/kg·bw, blood 5–120 min, feces 48 h collection)?
**A.** Its value is 9.

**Q.** What about the “number of metabolites detected” value [3] of the same compound?
**A.** The value was “eight”.

**Q.** What about the “residues in eggs throughout” value ([4]; 400 mg/kg feed Bopu Powder, 7 days) of the same compound?
**A.** Its value is “undetectable”.

**Q.** And the “residual levels 1 day after withdrawal” value ([4]; 2000 mg/kg feed Bopu Powder, 7 days)?
**A.** Its value is 8.61 µg/kg.

**Q.** And the “residues 7 days post-withdrawal” value ([4]; 2000 mg/kg feed Bopu Powder)?
**A.** Its value is “residues persisted”.

**Q.** What about the “number of metabolites identified, including isomers” value [5] of the same compound?
**A.** Its value is 25.

**Q.** And the “number of key metabolites identified” value [6]?
**A.** The value was “five”.

**Q.** And the “number of metabolites detected” value [7]?
**A.** The value was “four”.

**Q.** What about the residues in kidney ([8]; BP group: 50 mg/kg Bopu Powder in diet, 56 days, n = 6, LOD 1 ng/g wet weight) of the same compound?
**A.** The residues in kidney was 6.59 ± 4.61 ng/g.

**Q.** And the residues in eggs [8, 12]?
**A.** Its residues in eggs is 12.29 ng/g and 12.29 ± 4.69 ng/g.

**Q.** And the residues in kidney [8, 12]?
**A.** Its residues in kidney is 7.92 ± 4.12 ng/g.

**Q.** What about the residues in liver [8, 12] of the same compound?
**A.** Its residues in liver is 56.14 ± 9.39 ng/g.

**Q.** And the concentration at 56 days ([8]; 50 mg/kg, residues in kidney, BP group: 50 mg/kg Bopu Powder in diet)?
**A.** Its concentration at 56 days is 6.59 ng/g.

**Q.** What about the concentration at 56 days ([8]; 500 mg/kg, residues in kidney, BPX group: 500 mg/kg Bopu Powder in diet) of the same compound?
**A.** Its concentration at 56 days is 7.92 ng/g.

**Q.** What about the concentration at 56 days ([8]; 500 mg/kg, residues in liver, BPX group: 500 mg/kg Bopu Powder in diet) of the same compound?
**A.** Its concentration at 56 days is 56.1 ng/g.

**Q.** Which “highest residual level, liver at 48 h” value ([1]; rat, in vivo) does the source give for protopine here?
**A.** Its value is 20.64 ng/g.

**Q.** What about the “highest residual level, spleen at 24 h” value ([1]; rat, in vivo) of the same compound?
**A.** Its value is 44.04 ng/g.

**Q.** What about the “highest residue level, liver at 48 h (second statement)” value ([1]; rat, in vivo) of the same compound?
**A.** Its value is 61.8 ng/g.

**Q.** And the “residue levels in other tissues (second statement)” value ([1]; rat, in vivo)?
**A.** Its value is “below 6.5 ng/g”.

**Q.** And the hepatoprotective effect [9]?
**A.** The hepatoprotective effect was “effectively counteracts carbon tetrachloride, acetaminophen, and simvastatin-induced hepatotoxicity”.

**Q.** What about the “number of metabolites detected in fecal samples” value [10] of the same compound?
**A.** The value was “Eleven”.

**Q.** What about the “number of metabolites detected in pooled plasma” value [10] of the same compound?
**A.** The value was “two”.

**Q.** And the “number of metabolites identified in plasma and feces” value [10]?
**A.** The value was 12.

**Q.** And the “time until concentrations fell below LOQ (10 ng/mL)” value [11]?
**A.** Its value is no more than 8 h.
